Paper PMC9182086, “Identification of New Non-BBB Permeable Tryptophan Hydroxylase Inhibitors for Treating Obesity and Fatty Liver Disease” (Molecules, 2022)
One block for each compound: values may come before it.

Columns and labels:
TPH1 = target: T1, TPH1 (Homo sapiens, UniProt P17752); test: TPH1 enzyme inhibition, in vitro screening (BPS Bioscience kit, fluorescence); format: biochemical; conditions: for inhibition at 10 µM: 10 µM compound (stated in the cell); for inhibition at 1 µM / TPH1 Inhibition (% Inhibition at 1 µM): 1 µM compound
T1 construct: purchased BPS Bioscience
T1 sequence (P17752 1-444): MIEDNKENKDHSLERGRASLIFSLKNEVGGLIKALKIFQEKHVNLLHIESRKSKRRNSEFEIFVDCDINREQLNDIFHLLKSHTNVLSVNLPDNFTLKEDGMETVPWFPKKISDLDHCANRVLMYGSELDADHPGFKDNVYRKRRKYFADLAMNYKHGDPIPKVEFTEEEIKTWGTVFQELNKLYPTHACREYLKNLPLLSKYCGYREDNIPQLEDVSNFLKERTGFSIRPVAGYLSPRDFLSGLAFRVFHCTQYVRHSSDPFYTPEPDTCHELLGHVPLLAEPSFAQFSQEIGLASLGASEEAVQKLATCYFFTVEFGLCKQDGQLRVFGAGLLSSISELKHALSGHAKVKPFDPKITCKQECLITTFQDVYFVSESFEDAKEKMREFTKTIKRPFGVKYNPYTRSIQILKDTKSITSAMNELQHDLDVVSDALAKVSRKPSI
Method: Consequently, the core structure of thienopyrimidine tyrosine (derivative 6) was selected as the starting point for the synthesis, evaluating the structure-activity relationships (SAR), and optimization of TPH1 inhibitors. […]
In vitro screening was performed as described previously [PMID: 33417443]. Briefly, TPH1 enzyme activity was measured with a commercially available kit (BPS Bioscience). Compounds were dissolved in DMSO (Sigma). Then, 10 μL of the compound was dispensed into a 96-well microplate, and 40 μL of the TPH1 enzyme solution (320 ng enzyme/reaction) was added. Then, 50 μL of the TPH1 reaction solution was added, and the microplate was sealed with aluminum foil. The microplate was immediately cooled to 4 °C, gently shaken, and incubated for 4 h. After a defined time, 10 μL of the TPH1 quench solution was added. Then, the fluorescence was measured with a Flexstation3 microplate reader at 300 nm for excitation and 360 nm for emission. All experiments were performed in triplicate.

HFD-fed C57BL/6J mice = test: In vivo efficacy test in high-fat diet fed mice; set-up: species or system mouse; conditions: vs vehicle
Method: All animal study protocols were approved by the Institutional Animal Care and Use Committee at the Korea Advanced Institute of Science and Technology. Male C57BL/6J mice were purchased from SLC (Shizuoka, Japan) and acclimatized for a week. Mice were housed in a humidity and temperature-controlled environment under a 12 h light-dark cycle with ad libitum access to water and food. After acclimatization, male mice were fed a high-fat diet (HFD, 60% fat calories, Research diet; New Brunswick, NJ) and received daily treatment with TPH1 inhibitors. […] Compound 18i was dissolved in 5% dimethyl sulfoxide (DMSO) (Sigma, St. Louis, MO, USA) and 25% β-cyclodextrin (Sigma, St. Louis, MO, USA). Vehicle or compound 18i (100 mg kg^−1) was injected intraperitoneally in mice for 10 days after two weeks of HFD feeding. Both compounds 19 and 21 were prepared in 10% DMSO and 10% Kolliphor EL (Sigma, St. Louis, MO, USA). Vehicle and 100 mg kg^−1 of compound 19 or compound 21 were administered daily by intraperitoneal injection or oral feeding, respectively, concomitant to the initiation of HFD feeding. For analyzing blood glucose concentration, glucose in blood collected from the tail vein was measured after fasting mice for 16 h using a Gluco Dr. Top glucometer (Allemedicus, Anyang, Korea). Body weight was measured daily and mice were sacrificed for harvesting adipose tissue and liver.
Tissue samples were fixed in 10% formalin, embedded in paraffin, and cut into 5 μm thick sections, followed by deparaffinization and rehydration for H&E staining and UCP1 immunohistochemistry. After heat-induced antigen retrieval with a citrate buffer (pH 6.0) for 10 min at 95°C, tissue sections were incubated with BLOXALL Blocking solution (Vector Laboratories, Burlingame, CA, USA) to block endogenous peroxidase, followed by incubation with 2% normal goat serum in phosphate-buffered saline (PBS) for 30 min at room temperature to block nonspecific binding. Sections were incubated overnight with the anti-UCP1 primary antibody diluted 1:200 in 2% normal goat serum in PBS (Abcam, Cambridge, UK) at 4 °C, followed by 30 min incubation with biotinylated anti-rabbit IgG secondary antibody diluted 1:400 in PBS for 30 min at room temperature. After incubation with Vectastain […] reagent (Vector Laboratories) for 30 min, peroxidase activity was visualized with 3,3′-diaminobenzidine substrates (Vector Laboratories). For measuring average adipocyte size, we analyzed three random fields of H&E stained micrographs per adipose tissue sample from two representative mice of each group using AdipoCount software.
Fresh liver tissues were flash frozen in O.C.T. compound (Sakura Finetek, Torrance, CA, USA) and 10 μm cryostat sections were collected on glass slides. Sections were allowed to air-dry for 1 h, rinsed with PBS for 5 min, and washed with distilled water for 5 min. After washing, sections were placed in 30% isopropanol for 5 min, 60% isopropanol for 5 min twice, and then stained in Oil Red O solution (0.5% Oil red O (Sigma, St. Louis, MO, USA) dissolved in 60% isopropanol) for 15 min. The stained sections were rinsed twice with distilled water, mounted, coverslipped, and documented using bright field microscopy.

[1] = system: high-fat diet (HFD) fed mice; set-up: method as in PMID 25864946, PMID 25485911; conditions: cited from earlier work
PAMPA-BBB permeability = format: in vitro ADME; conditions: high permeation predicted > 4.0, low < 2.0, read-out: BBB Permeability Pe
Excerpt: Based on the in vitro data, compound 18i was selected for […] the in vitro BBB permeability. Several in vitro methods and computational models have been used in drug discovery to predict the potential of a drug to penetrate the BBB [15, 16, 17, 18, 19, 20, 21]. The parallel artificial membrane permeation assay (PAMPA) was used to evaluate the BBB permeability of the selected compounds. The PAMPA-BBB assay is advantageous because it predicts passive penetration at the blood-brain barrier with high success, high throughput, low cost, and high reproducibility.
PAMPA was conducted with a […] PAMPA sandwich (pION, Inc., Billerica, MA, USA) consisting of a 96-well filter plate (0.45 μm PVDF membrane) and a 96-well polystyrene donor plate. Test compounds were prepared in 10 mM stock solution with DMSO and diluted to a working solution of 50 μM concentration using a phosphate buffered saline (PBS) buffer. To form lipid membranes in the acceptor plate, 5 μL GIT-0 lipid (pION, Inc., Billerica, MA, USA) was dropped and semi-dried on the bottom side of the 0.45 μm PVDF membrane. The donor plate was prepared by the addition of 200 μL of working solution. […] To acquire the peak area of range from 230 to 500 nm, absorbance scans of PBS, acceptor, donor, and working solution were carried out with an Epoch ELISA reader (BioTek Instruments Inc., Winooski, VT, USA). […]

TPH1 inhibitory activity (in words) (TPH1): weak activity
inhibition at 100 µM (TPH1; 100 µM compound): 33%
Structure (SMILES): N[C@@H](Cc1ccc(-c2csc3c(O)ncnc23)cc1)C(=O)O [Compound 15b]

TPH1 inhibitory activity (in words) (TPH1): completely lost their activity
inhibition at 10 µM (TPH1): 1.2%
Structure (SMILES): N[C@@H](Cc1ccc(-c2csc3c(OC(c4ccc(-c5ccccc5)cc4)C(F)(F)F)ncnc23)cc1)C(=O)O (some centres unmarked) [Compound 18d]

TPH1 inhibitory activity (in words) (TPH1): completely lost their activity
inhibition at 10 µM (TPH1): 2.5%
Structure (SMILES): Cl.N[C@@H](Cc1ccc(-c2csc3c(OC(c4ccccc4)C(F)(F)F)ncnc23)cc1)C(=O)O (some centres unmarked) [Compound 18c]

inhibition at 100 µM (TPH1; 100 µM compound): > 60%
Structure (SMILES): N[C@@H](Cc1ccc(Oc2ncnc3c(Br)csc23)cc1)C(=O)O [Compound 6]

inhibition at 1 µM (TPH1): 25%
inhibition at 100 µM (TPH1; 100 µM compound): 90%
Structure (SMILES): N[C@@H](Cc1ccc(-c2csc3c(NCc4ccc(-c5ccccc5)cc4)ncnc23)cc1)C(=O)O [Compound 18a]

inhibition at 100 µM (TPH1; 100 µM compound): 94%
TPH1 Inhibition (% Inhibition at 100 µM) (TPH1; 100 µM compound, 100 µM): 92%
Structure (SMILES): N[C@@H](Cc1ccc(Oc2ncnc3c(-c4cccc(OCc5ccccc5)c4)csc23)cc1)C(=O)O [Compound 11b]

IC50 (TPH1): 994 nM
TPH1 Inhibition (% Inhibition at 1 µM) (TPH1): 60%
Structure (SMILES): CCOC(=O)[C@@H](N)Cc1ccc(-c2csc3c(O[C@H](c4ccc(Cl)cc4-n4ccc(C)n4)C(F)(F)F)ncnc23)cc1.Cl [Compound 19, ethyl (S)-2-amino-3-(4-(4-((R)-1-(4-chloro-2-(3-methyl-1H-pyrazol-1-yl)phenyl)-2,2,2-trifluoroethoxy)thieno[3,2-d]pyrimidin-7-yl)phenyl)propanoate hydrochloride]
Body weight gain (HFD-fed C57BL/6J mice; 100 mg/kg ip daily for 11 days from start of HFD): attenuated body weight gain
Adipocyte size in eWAT and iWAT (histology) (HFD-fed C57BL/6J mice; 100 mg/kg ip daily): decreased adipocyte size
UCP1 content in iWAT (immunohistochemistry) (HFD-fed C57BL/6J mice; 100 mg/kg ip daily): higher content of mitochondrial uncoupling protein 1 (UCP1)

inhibition at 1 µM (TPH1): 41%
Structure (SMILES): N[C@@H](Cc1ccc(-c2csc3c(OC(c4ccc(Cl)cc4-c4ccccc4)C(F)(F)F)ncnc23)cc1)C(=O)O (some centres unmarked) [Compound 18f]

TPH1 Inhibition (% Inhibition at 1 µM) (TPH1; 1 µM): 92%
Structure (SMILES): CCOC(=O)[C@@H](N)Cc1ccc(-c2csc3c(O[C@H](c4ccc(Cl)cc4-n4ccc(C)n4)C(F)(F)F)ncnc23)cc1 [Compound 21, ethyl (S)-2-amino-3-(4-(4-((R)-1-(4-chloro-2-(3-methyl-1H-pyrazol-1-yl)phenyl)-2,2,2-trifluoroethoxy)thieno[3,2-d]pyrimidin-7-yl)phenyl)propanoate hippurate]
Body and liver weights (HFD-fed C57BL/6J mice; 100 mg/kg oral daily, 6 weeks): without significant changes in body and liver weights
Lipid accumulation in liver tissue (H&E, oil red O) (HFD-fed C57BL/6J mice; 100 mg/kg oral daily, 6 weeks): dramatically decreased lipid accumulation in liver tissue

Structure (SMILES): Nc1nc(OC(c2ccc(-c3cccc(F)c3)cc2)C(F)(F)F)cc(-c2ccc(C[C@H](N)C(=O)O)cc2)n1 (stereo partly drawn) [LP533401, 4-[2-amino-6-[2,2,2-trifluoro-1-(3’-fluoro[1,1’-biphenyl]-4-yl)ethoxy]-4-pyrimidinyl]-L-phenylalanine, reference compound]
Protection against diet-induced obesity (body weight gain, lipogenesis in adipose tissue) [1]: protect against diet-induced obesity in vivo

TPH1 Inhibition (% Inhibition at 1 µM) (TPH1; 1 µM): 79%
Structure (SMILES): CCOC(=O)[C@@H](N)Cc1ccc(-c2csc3c(O[C@H](c4ccc(Cl)cc4-n4ccc(C)n4)C(F)(F)F)ncnc23)cc1 [Compound 20, ethyl (S)-2-amino-3-(4-(4-((R)-1-(4-chloro-2-(3-methyl-1H-pyrazol-1-yl)phenyl)-2,2,2-trifluoroethoxy)thieno[3,2-d]pyrimidin-7-yl)phenyl)propanoate]

IC50 (TPH1): 208 nM
inhibition at 1 µM (TPH1): 91%
Structure (SMILES): Cc1ccn(-c2cc(Cl)ccc2[C@@H](Oc2nc(N)nc3c(-c4ccc(C[C@H](N)C(=O)O)cc4)csc23)C(F)(F)F)n1 [Compound 30]

TPH1 inhibitory activity (in words) (TPH1): weak activity
inhibition at 100 µM (TPH1; 100 µM compound): 49%
Structure (SMILES): Nc1ncnc2c(-c3ccc(C[C@H](N)C(=O)O)cc3)csc12 [Compound 15a]

inhibition at 1 µM (TPH1): < 5%
inhibition at 100 µM (TPH1; 100 µM compound): 25%
Papp at 4 h, 50 µM (PAMPA-BBB permeability): 1.85 ×10⁻⁶ cm/s
Structure (SMILES): NC(Cc1ccc(Cl)cc1)C(=O)O (centres unmarked) [pCPA, para-chlorophenylalanine, reference compound]
Protection against diet-induced obesity (body weight gain, lipogenesis in adipose tissue) [1]: protect against diet-induced obesity in vivo

inhibition at 1 µM (TPH1): 12%
Structure (SMILES): N[C@@H](Cc1ccc(-c2csc3c(O[C@H](c4ccc(Cl)cc4-c4ccoc4)C(F)(F)F)ncnc23)cc1)C(=O)O [Compound 18g]

inhibition at 100 µM (TPH1; 100 µM compound): 82%
Structure (SMILES): N[C@@H](Cc1ccc(Oc2ncnc3c(-c4cccc(O)c4)csc23)cc1)C(=O)O [Compound 9b]

inhibition at 100 µM (TPH1; 100 µM compound): 45%
Structure (SMILES): N[C@@H](Cc1ccc(Oc2ncnc3c(-c4ccc(O)cc4)csc23)cc1)C(=O)O [Compound 9a]

inhibition at 1 µM (TPH1): 10%
Structure (SMILES): C[C@@H](Nc1ncnc2c(-c3ccc(C[C@H](N)C(=O)O)cc3)csc12)c1ccc2ccccc2c1 [Compound 18b]

inhibition at 100 µM (TPH1; 100 µM compound): 58%
Structure (SMILES): N[C@@H](Cc1ccc(Oc2ncnc3c(-c4ccc(OCc5ccccc5)cc4)csc23)cc1)C(=O)O [Compound 11a]

IC50 (TPH1): 263 nM
inhibition at 1 µM (TPH1): 78%
Structure (SMILES): N[C@@H](Cc1ccc(-c2csc3c(O[C@H](c4ccc(Cl)cc4C4=CCCOC4)C(F)(F)F)ncnc23)cc1)C(=O)O [Compound 18h]

inhibition at 1 µM (TPH1): 76%
Structure (SMILES): N[C@@H](Cc1ccc(-c2csc3c(OC(c4ccccc4-c4ccccc4)C(F)(F)F)ncnc23)cc1)C(=O)O (some centres unmarked) [Compound 18e]
